Measurements: patent US10807992B2, “Single enantiomer antiparasitic compounds” (priority 2017, dated 2020)
Where two headings read alike, the source gives them in different places.

What was measured:
[1] = test system: Aedes aegypti; experiment: In vitro contact activity against adult mosquitoes (coated vial)
Method: (§1) Aedes aegypti (Louisiana Biologicals Inc., New Orleans, La.) eggs were allowed to hatch, close, and age between 3-5 days in an environmental chamber at 26° C., 80% humidity with light/dark cycles.
For mosquito assays, an aliquot from each compound stock was added to an acetone/triton solution to achieve the desired top doses for the study. Serial dilutions were conducted from the top dose (i.e. 50 ppm) to achieve the desired titration range for EC50 and EC90 determination. The final DMSO concentration in each test vial was 0.5%. A 459 μL aliquot of each compound formulation was transferred to a vial and vials were immediately placed on an unheated roller unit to allow for an even coating of the vial walls. The vials were loosely capped and allowed to dry for a minimum of four hours in a chemical fume hood.
(§2) For both contact and ingestion assays, five female Aedes aegypti adults were added to each vial or cage. The test vials for contact assays were held in an environmental chamber at 24° C., 80% humidity with light/dark cycles (12 hours each). The cages for mosquito ingestion assays were held in a temperature-controlled artificial feeding apparatus to allow continual access to organic bovine blood containing the desired concentration of compound. Fresh aliquots of compound-spiked bovine blood were provided daily for the duration of the study.
(§3) Mosquitoes showing no movement or mosquitoes that were knocked down were noted as dead. Results from trial 1 and trial 2 contact assays are shown in Tables 12 and 13, respectively and the results from trial 3 mosquito ingestion assay is shown in table 14.
(§4) For the mosquito contact and ingestion assays, each replicate contained 5 mosquitoes. For ease of calculation, the two replicates were added to equal a total of 10 mosquitoes.

[2] = test system: Aedes aegypti; experiment: In vitro ingestion activity against adult mosquitoes (artificial feeding, bovine blood); settings: read-out: Mortality % R1 + R2
Method: as §1
For mosquito ingestion tests, serial dilutions of the compound stock were performed using DMSO to achieve the desired range for EC50 and EC90 determination. An aliquot of each compound dilution was added to organic bovine blood with a final DMSO concentration of 0.5% and placed in a temperature-controlled artificial feeding container.
Compounds tested were: the C1 racemate, C1 (R) enantiomer, and the C1 (S) enantiomer. For Trial 3, the C1 (R) enantiomer and the C1 (S) enantiomer were further chiral purified to achieve >99% purity.
as §2
as §3, with “Assessment of mortality/knockdown was performed at various time points between 30 minutes and 24 hours post infestation. Mosquitoes” for “Mosquitoes”
as §4

Question: Which results are given for `O=C(CC(F)(F)F)N1CC2(C1)OCc1cc(C3=NSC(c4cc(Cl)c(F)c(Cl)c4)(C(F)(F)F)C3)ccc12` (racemic) [C1 racemate, 1-[6-[5-(3,5-dichloro-4-fluoro-phenyl)-5-(trifluoromethyl)-4H-isothiazol-3-yl]spiro[1H-isobenzofuran-3,3′-azetidine]-1′-yl]-3,3,3-trifluoro-propan-1-one]?
Answer: mortality at 0.049 µM ([1]; 0.5 h, read-out: % Mortality R1 + R2, Trial 1, contact assay, dose 0.049 μM, 0.5 Hr): 0%; mortality at 0.2 µM ([1]; 0.5 h, read-out: % Mortality R1 + R2, Trial 1, contact assay, dose 0.20 μM, 0.5 Hr): 0%; mortality at 0.78 µM ([1]; 0.5 h, read-out: % Mortality R1 + R2, Trial 1, contact assay, dose 0.78 μM, 0.5 Hr): 0%; mortality at 3.125 µM ([1]; 0.5 h, read-out: % Mortality R1 + R2, Trial 1, contact assay, dose 3.125 μM, 0.5 Hr): 0%; mortality at 12.5 µM ([1]; 0.5 h, read-out: % Mortality R1 + R2, Trial 1, contact assay, dose 12.5 μM, 0.5 Hr): 0%; mortality at 50 µM ([1]; 0.5 h, read-out: % Mortality R1 + R2, Trial 1, contact assay, dose 50 μM, 0.5 Hr): 0%; mortality at 0.049 µM ([1]; 0.5 h, read-out: % Mortality R1 + R2, Trial 2, contact assay, dose 0.049 μM, 0.5 Hr): 0%; mortality at 0.2 µM ([1]; 0.5 h, read-out: % Mortality R1 + R2, Trial 2, contact assay, dose 0.20 μM, 0.5 Hr): 0%; mortality at 0.78 µM ([1]; 0.5 h, read-out: % Mortality R1 + R2, Trial 2, contact assay, dose 0.78 μM, 0.5 Hr): 0%; mortality at 3.125 µM ([1]; 0.5 h, read-out: % Mortality R1 + R2, Trial 2, contact assay, dose 3.125 μM, 0.5 Hr): 0%; mortality at 12.5 µM ([1]; 0.5 h, read-out: % Mortality R1 + R2, Trial 2, contact assay, dose 12.5 μM, 0.5 Hr): 0%; mortality at 50 µM ([1]; 0.5 h, read-out: % Mortality R1 + R2, Trial 2, contact assay, dose 50 μM, 0.5 Hr): 0%; mortality at 0.049 µM ([1]; 1 h, read-out: % Mortality R1 + R2, Trial 1, contact assay, dose 0.049 μM, 1 hr): 0%; mortality at 0.2 µM ([1]; 1 h, read-out: % Mortality R1 + R2, Trial 1, contact assay, dose 0.20 μM, 1 hr): 0%; mortality at 0.78 µM ([1]; 1 h, read-out: % Mortality R1 + R2, Trial 1, contact assay, dose 0.78 μM, 1 hr): 0%; mortality at 3.125 µM ([1]; 1 h, read-out: % Mortality R1 + R2, Trial 1, contact assay, dose 3.125 μM, 1 hr): 0%; mortality at 12.5 µM ([1]; 1 h, read-out: % Mortality R1 + R2, Trial 1, contact assay, dose 12.5 μM, 1 hr): 0%; mortality at 50 µM ([1]; 1 h, read-out: % Mortality R1 + R2, Trial 1, contact assay, dose 50 μM, 1 hr): 0%; mortality at 0.049 µM ([1]; 1 h, read-out: % Mortality R1 + R2, Trial 2, contact assay, dose 0.049 μM, 1 hr): 0%; mortality at 0.2 µM ([1]; 1 h, read-out: % Mortality R1 + R2, Trial 2, contact assay, dose 0.20 μM, 1 hr): 0%; mortality at 0.78 µM ([1]; 1 h, read-out: % Mortality R1 + R2, Trial 2, contact assay, dose 0.78 μM, 1 hr): 0%; mortality at 3.125 µM ([1]; 1 h, read-out: % Mortality R1 + R2, Trial 2, contact assay, dose 3.125 μM, 1 hr): 0%; mortality at 12.5 µM ([1]; 1 h, read-out: % Mortality R1 + R2, Trial 2, contact assay, dose 12.5 μM, 1 hr): 0%; mortality at 50 µM ([1]; 1 h, read-out: % Mortality R1 + R2, Trial 2, contact assay, dose 50 μM, 1 hr): 0%; mortality at 0.049 µM ([1]; 6 h, read-out: % Mortality R1 + R2, Trial 1, contact assay, dose 0.049 μM, 6 hr): 0%; mortality at 0.2 µM ([1]; 6 h, read-out: % Mortality R1 + R2, Trial 1, contact assay, dose 0.20 μM, 6 hr): 0%; mortality at 0.78 µM ([1]; 6 h, read-out: % Mortality R1 + R2, Trial 1, contact assay, dose 0.78 μM, 6 hr): 0%; mortality at 3.125 µM ([1]; 6 h, read-out: % Mortality R1 + R2, Trial 1, contact assay, dose 3.125 μM, 6 hr): 0%; mortality at 12.5 µM ([1]; 6 h, read-out: % Mortality R1 + R2, Trial 1, contact assay, dose 12.5 μM, 6 hr): 0%; mortality at 50 µM ([1]; 6 h, read-out: % Mortality R1 + R2, Trial 1, contact assay, dose 50 μM, 6 hr): 80%; mortality at 0.049 µM ([1]; 6 h, read-out: % Mortality R1 + R2, Trial 2, contact assay, dose 0.049 μM, 6 hr): 0%; mortality at 0.2 µM ([1]; 6 h, read-out: % Mortality R1 + R2, Trial 2, contact assay, dose 0.20 μM, 6 hr): 0%; mortality at 0.78 µM ([1]; 6 h, read-out: % Mortality R1 + R2, Trial 2, contact assay, dose 0.78 μM, 6 hr): 0%; mortality at 3.125 µM ([1]; 6 h, read-out: % Mortality R1 + R2, Trial 2, contact assay, dose 3.125 μM, 6 hr): 0%; mortality at 12.5 µM ([1]; 6 h, read-out: % Mortality R1 + R2, Trial 2, contact assay, dose 12.5 μM, 6 hr): 10%; mortality at 50 µM ([1]; 6 h, read-out: % Mortality R1 + R2, Trial 2, contact assay, dose 50 μM, 6 hr): 100%; mortality at 0.049 µM ([1]; 12 h, read-out: % Mortality R1 + R2, Trial 1, contact assay, dose 0.049 μM, 12 hr): 0%; mortality at 0.2 µM ([1]; 12 h, read-out: % Mortality R1 + R2, Trial 1, contact assay, dose 0.20 μM, 12 hr): 0%; mortality at 0.78 µM ([1]; 12 h, read-out: % Mortality R1 + R2, Trial 1, contact assay, dose 0.78 μM, 12 hr): 0%; mortality at 3.125 µM ([1]; 12 h, read-out: % Mortality R1 + R2, Trial 1, contact assay, dose 3.125 μM, 12 hr): 0%; mortality at 12.5 µM ([1]; 12 h, read-out: % Mortality R1 + R2, Trial 1, contact assay, dose 12.5 μM, 12 hr): 0%; mortality at 50 µM ([1]; 12 h, read-out: % Mortality R1 + R2, Trial 1, contact assay, dose 50 μM, 12 hr): 100%; mortality at 0.049 µM ([1]; 12 h, read-out: % Mortality R1 + R2, Trial 2, contact assay, dose 0.049 μM, 12 hr): 0%; mortality at 0.2 µM ([1]; 12 h, read-out: % Mortality R1 + R2, Trial 2, contact assay, dose 0.20 μM, 12 hr): 0%; mortality at 0.78 µM ([1]; 12 h, read-out: % Mortality R1 + R2, Trial 2, contact assay, dose 0.78 μM, 12 hr): 0%; mortality at 3.125 µM ([1]; 12 h, read-out: % Mortality R1 + R2, Trial 2, contact assay, dose 3.125 μM, 12 hr): 0%; mortality at 12.5 µM ([1]; 12 h, read-out: % Mortality R1 + R2, Trial 2, contact assay, dose 12.5 μM, 12 hr): 80%; mortality at 50 µM ([1]; 12 h, read-out: % Mortality R1 + R2, Trial 2, contact assay, dose 50 μM, 12 hr): 100%; mortality at 0.049 µM ([1]; 24 h, read-out: % Mortality R1 + R2, Trial 1, contact assay, dose 0.049 μM, 24 hr): 0%; mortality at 0.2 µM ([1]; 24 h, read-out: % Mortality R1 + R2, Trial 1, contact assay, dose 0.20 μM, 24 hr): 0%; mortality at 0.78 µM ([1]; 24 h, read-out: % Mortality R1 + R2, Trial 1, contact assay, dose 0.78 μM, 24 hr): 0%; mortality at 3.125 µM ([1]; 24 h, read-out: % Mortality R1 + R2, Trial 1, contact assay, dose 3.125 μM, 24 hr): 0%; mortality at 12.5 µM ([1]; 24 h, read-out: % Mortality R1 + R2, Trial 1, contact assay, dose 12.5 μM, 24 hr): 90%; mortality at 50 µM ([1]; 24 h, read-out: % Mortality R1 + R2, Trial 1, contact assay, dose 50 μM, 24 hr): 100%; mortality at 0.049 µM ([1]; 24 h, read-out: % Mortality R1 + R2, Trial 2, contact assay, dose 0.049 μM, 24 hr): 0%; mortality at 0.2 µM ([1]; 24 h, read-out: % Mortality R1 + R2, Trial 2, contact assay, dose 0.20 μM, 24 hr): 0%; mortality at 0.78 µM ([1]; 24 h, read-out: % Mortality R1 + R2, Trial 2, contact assay, dose 0.78 μM, 24 hr): 0%; mortality at 3.125 µM ([1]; 24 h, read-out: % Mortality R1 + R2, Trial 2, contact assay, dose 3.125 μM, 24 hr): 70%; mortality at 12.5 µM ([1]; 24 h, read-out: % Mortality R1 + R2, Trial 2, contact assay, dose 12.5 μM, 24 hr): 100%; mortality at 50 µM ([1]; 24 h, read-out: % Mortality R1 + R2, Trial 2, contact assay, dose 50 μM, 24 hr): 100%; mortality at 0.049 µM ([1]; 48 h, read-out: % Mortality R1 + R2, Trial 1, contact assay, dose 0.049 μM, 48 hr): 40%; mortality at 0.2 µM ([1]; 48 h, read-out: % Mortality R1 + R2, Trial 1, contact assay, dose 0.20 μM, 48 hr): 20%; mortality at 0.78 µM ([1]; 48 h, read-out: % Mortality R1 + R2, Trial 1, contact assay, dose 0.78 μM, 48 hr): 30%; mortality at 3.125 µM ([1]; 48 h, read-out: % Mortality R1 + R2, Trial 1, contact assay, dose 3.125 μM, 48 hr): 90%; mortality at 12.5 µM ([1]; 48 h, read-out: % Mortality R1 + R2, Trial 1, contact assay, dose 12.5 μM, 48 hr): 100%; mortality at 50 µM ([1]; 48 h, read-out: % Mortality R1 + R2, Trial 1, contact assay, dose 50 μM, 48 hr): 100%; mortality at 0.049 µM ([1]; 48 h, read-out: % Mortality R1 + R2, Trial 2, contact assay, dose 0.049 μM, 48 hr): 0%; mortality at 0.2 µM ([1]; 48 h, read-out: % Mortality R1 + R2, Trial 2, contact assay, dose 0.20 μM, 48 hr): 40%; mortality at 0.78 µM ([1]; 48 h, read-out: % Mortality R1 + R2, Trial 2, contact assay, dose 0.78 μM, 48 hr): 0%; mortality at 3.125 µM ([1]; 48 h, read-out: % Mortality R1 + R2, Trial 2, contact assay, dose 3.125 μM, 48 hr): 100%; mortality at 12.5 µM ([1]; 48 h, read-out: % Mortality R1 + R2, Trial 2, contact assay, dose 12.5 μM, 48 hr): 100%; mortality at 50 µM ([1]; 48 h, read-out: % Mortality R1 + R2, Trial 2, contact assay, dose 50 μM, 48 hr): 100%; mortality at 0.049 ppm ([2]; 24 h): 71.4%; mortality at 0.2 ppm ([2]; 24 h): 100%; mortality at 0.78 ppm ([2]; 24 h): 100%; mortality at 3.125 ppm ([2]; 24 h): 100%; mortality at 12.5 ppm ([2]; 24 h): 100%; mortality at 50 ppm ([2]; 24 h): 100%; mortality at 0.049 ppm [2]: 0%; mortality at 0.2 ppm [2]: 0%; mortality at 0.78 ppm [2]: 50%; mortality at 3.125 ppm [2]: 100%; mortality at 12.5 ppm [2]: 100%; mortality at 50 ppm [2]: 100%
